{"source": "patent US20210395239A1", "about": "(Hoffmann-La Roche Inc., priority 2018, published 2021)"}
{"biological_target": "T1, CYP3A4 (Homo sapiens, UniProt P08684)", "T1 construct": "tissue BD-Gentest 452117; host or cells: human liver microsomes", "T1 sequence (P08684 whole entry)": "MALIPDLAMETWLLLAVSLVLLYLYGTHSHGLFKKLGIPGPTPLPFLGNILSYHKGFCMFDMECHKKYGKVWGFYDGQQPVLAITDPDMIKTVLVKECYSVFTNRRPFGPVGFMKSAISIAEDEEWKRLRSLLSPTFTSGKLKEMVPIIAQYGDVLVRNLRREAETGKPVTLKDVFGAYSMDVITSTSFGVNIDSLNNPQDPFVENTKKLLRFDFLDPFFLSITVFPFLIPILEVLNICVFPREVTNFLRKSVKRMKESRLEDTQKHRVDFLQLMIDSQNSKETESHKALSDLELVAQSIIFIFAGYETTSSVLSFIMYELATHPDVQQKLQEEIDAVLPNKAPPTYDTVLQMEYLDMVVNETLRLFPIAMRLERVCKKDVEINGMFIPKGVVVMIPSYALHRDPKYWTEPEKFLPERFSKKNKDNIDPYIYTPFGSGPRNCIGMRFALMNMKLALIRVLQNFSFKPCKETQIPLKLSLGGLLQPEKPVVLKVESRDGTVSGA", "test": "CYP inhibition assay in human liver microsome, CYP3A4", "type": "in vitro ADME", "conditions": "human, human liver microsomes, probe midazolam 5 μM, substrate midazolam 5 μM, third value of 2C9/2D6/3A4", "method_in_brief": "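Pooled human liver microsomes with a substrate for each CYP were incubated with compound at 37 °C after NADPH addition, for 5 min (CYP2D6: 10 min), then quenched with acetonitrile containing labelled metabolite standards. Metabolite/internal-standard peak area ratios were measured by RapidFire MS/MS. % inhibition was scaled between DMSO and standard-inhibitor controls.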", "units": {"inhibition at 5 min, 10 µM": "%"}}
{"smiles": "C[C@@H]1CN(c2ccc(C#N)c3ncccc23)C[C@H](CN2CCN(c3nc(N4CCNCC4)ncc3F)CC2)O1", "note": "[Example 45, 5-[(2S,6R)-2-[[4-(5-fluoro-2-piperazin-1-yl-pyrimidin-4-yl)piperazin-1-yl]methyl]-6-methyl-morpholin-4-yl]quinoline-8-carbonitrile]", "inhibition at 5 min, 10 µM": -5}
{"smiles": "C[C@@H]1CN(c2ccc(C#N)c3ncccc23)C[C@H](CN2CCN(c3cccc(NC4CNC4)n3)CC2)O1", "note": "[Example 38]", "inhibition at 5 min, 10 µM": 20}
{"smiles": "C[C@@H]1CN(c2ccc(C#N)c3ncccc23)C[C@H](CN2CCN(c3ccnc(N4CCN[C@@H](CO)C4)n3)CC2)O1", "note": "[Example 29, 5-[(2S,6R)-2-[[4-[2-[(3R)-3-(hydroxymethyl)piperazin-1-yl]pyrimidin-4-yl]piperazin-1-yl]methyl]-6-methyl-morpholin-4-yl]quinoline-8-carbonitrile]", "inhibition at 5 min, 10 µM": -5.5}
{"biological_target": "T2, hTLR9 (Homo sapiens, UniProt Q9NR96)", "T2 sequence (Q9NR96 26-1032)": "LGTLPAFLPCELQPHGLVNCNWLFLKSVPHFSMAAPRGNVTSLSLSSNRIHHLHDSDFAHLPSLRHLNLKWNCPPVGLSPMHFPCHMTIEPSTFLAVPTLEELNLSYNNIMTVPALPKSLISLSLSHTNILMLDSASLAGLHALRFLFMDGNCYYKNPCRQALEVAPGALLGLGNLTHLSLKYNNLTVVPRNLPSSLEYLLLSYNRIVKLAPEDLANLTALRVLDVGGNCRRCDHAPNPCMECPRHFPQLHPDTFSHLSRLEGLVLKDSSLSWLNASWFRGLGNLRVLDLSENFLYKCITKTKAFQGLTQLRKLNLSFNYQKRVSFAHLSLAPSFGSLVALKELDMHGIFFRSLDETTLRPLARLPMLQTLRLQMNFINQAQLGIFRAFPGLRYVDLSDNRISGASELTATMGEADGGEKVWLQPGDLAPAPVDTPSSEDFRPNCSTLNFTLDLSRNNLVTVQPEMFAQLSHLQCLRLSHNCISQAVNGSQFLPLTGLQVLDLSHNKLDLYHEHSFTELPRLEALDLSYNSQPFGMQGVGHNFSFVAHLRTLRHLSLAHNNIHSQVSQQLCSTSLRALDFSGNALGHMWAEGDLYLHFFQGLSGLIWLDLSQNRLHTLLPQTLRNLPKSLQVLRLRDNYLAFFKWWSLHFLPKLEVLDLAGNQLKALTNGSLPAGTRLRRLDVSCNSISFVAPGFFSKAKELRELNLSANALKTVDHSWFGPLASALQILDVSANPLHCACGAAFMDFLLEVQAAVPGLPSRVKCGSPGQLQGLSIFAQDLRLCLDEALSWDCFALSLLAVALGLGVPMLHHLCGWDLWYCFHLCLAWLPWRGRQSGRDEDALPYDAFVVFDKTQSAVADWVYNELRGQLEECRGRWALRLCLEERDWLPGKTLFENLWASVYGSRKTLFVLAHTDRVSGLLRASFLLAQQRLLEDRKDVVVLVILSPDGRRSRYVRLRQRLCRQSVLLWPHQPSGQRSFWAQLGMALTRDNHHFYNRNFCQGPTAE", "test": "HEK293-Blue-hTLR-9 cells assay (SEAP reporter, ODN2006 stimulation)", "type": "cell-based", "parameters": "host or cells: HEK293 (HEK-Blue hTLR9)", "conditions": "HEK293-Blue-hTLR9 cells, ODN2006, 20 hrs; read-out: HEK/hTLR9 IC50", "method_in_brief": "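Antagonism read as lowered SEAP reporter absorbance (620–655 nm, QUANTI-Blue, 2 h, 37 °C) in supernatants. Before that, ODN2006-stimulated HEK293-Blue cells stably expressing human TLR9 were exposed to compound dilutions at 1% final DMSO for 20 h at 37 °C.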", "units": {"IC50": "nM"}}
{"smiles": "C[C@@H]1CN(c2ccc(C#N)c3ncccc23)C[C@H](CN2CCN(c3nc(N4CCNCC4)ncc3F)CC2)O1", "note": "[Example 45, 5-[(2S,6R)-2-[[4-(5-fluoro-2-piperazin-1-yl-pyrimidin-4-yl)piperazin-1-yl]methyl]-6-methyl-morpholin-4-yl]quinoline-8-carbonitrile]", "IC50": 188}
{"smiles": "C[C@@H]1CN(c2ccc(C#N)c3ncccc23)C[C@H](CN2CCN(c3cccc(NC4CNC4)n3)CC2)O1", "note": "[Example 38]", "IC50": 97}
{"smiles": "C[C@@H]1CN(c2ccc(C#N)c3ncccc23)C[C@H](CN2CCN(c3ccnc(N4CCN[C@@H](CO)C4)n3)CC2)O1", "note": "[Example 29, 5-[(2S,6R)-2-[[4-[2-[(3R)-3-(hydroxymethyl)piperazin-1-yl]pyrimidin-4-yl]piperazin-1-yl]methyl]-6-methyl-morpholin-4-yl]quinoline-8-carbonitrile]", "IC50": 51}
{"smiles": "C[C@@H]1CN(c2cc(=O)n(C)c3ncccc23)C[C@H](CN2CC(c3ccc(N4CC5(CN(C)C5)C4)cc3)C2)O1", "note": "[Example 180, 1-methyl-4-[(2R,6S)-2-methyl-6-[[3-[4-(6-methyl-2,6-diazaspiro[3.3]heptan-2-yl)phenyl]azetidin-1-yl]methyl]morpholin-4-yl]-1,8-naphthyridin-2-one]", "IC50": 41}
{"smiles": "C[C@@H]1CN(c2ccc(C#N)n3ncc(F)c23)C[C@H](CN2CCN(c3ccc(N4CC5(CNCCO5)C4)nc3)CC2)O1", "note": "[Example 169, 3-fluoro-4-[(2R,6S)-2-methyl-6-[[4-[6-(5-oxa-2,8-diazaspiro[3.5]nonan-2-yl)-3-pyridyl]piperazin-1-yl]methyl]morpholin-4-yl]pyrazolo[1,5-a]pyridine-7-carbonitrile]", "IC50": 78}
{"smiles": "C[C@@H]1CN(c2ccc(C#N)n3ncc(F)c23)C[C@H](CN2CCN(c3ccc(N4CC[C@@H](N)[C@H](F)C4)nc3)CC2)O1", "note": "[Example 175, 4-[(2S,6R)-2-[[4-[6-[(3R,4R)-4-amino-3-fluoro-1-piperidyl]-3-pyridyl]piperazin-1-yl]methyl]-6-methyl-morpholin-4-yl]-3-fluoro-pyrazolo[1,5-a]pyridine-7-carbonitrile]", "IC50": 66}
{"smiles": "C[C@@H]1CN(c2ccc(C#N)c3ncccc23)C[C@H](CN2CCN(c3ccnc(OCCN(C)C)n3)CC2)O1", "note": "[Example 30, 5-[(2S,6R)-2-[[4-[2-[2-(dimethylamino)ethoxy]pyrimidin-4-yl]piperazin-1-yl]methyl]-6-methyl-morpholin-4-yl]quinoline-8-carbonitrile]", "IC50": 250}
{"smiles": "C[C@@H]1CN(c2ccc(C#N)c3ncccc23)C[C@H](CN2CCN(c3cccc(N4CCN(C)CC4)n3)CC2)O1", "note": "[Example 33, 5-[(2R,6S)-2-methyl-6-[[4-[6-(4-methylpiperazin-1-yl)-2-pyridyl]piperazin-1-yl]methyl]morpholin-4-yl]quinoline-8-carbonitrile]", "IC50": 116}
{"smiles": "Cc1cc(N2CCN(C[C@H]3CN(c4ccc(C#N)n5ncc(F)c45)C[C@@H](C)O3)CC2)nc(N2CCNCC2)n1", "note": "[Example 67, 3-Fluoro-4-[(2R,6S)-2-methyl-6-[[4-(6-methyl-2-piperazin-1-yl-pyrimidin-4-yl)piperazin-1-yl]methyl]morpholin-4-yl]pyrazolo[1,5-a]pyridine-7-carbonitrile]", "IC50": 81}
{"smiles": "C[C@@H]1CN(c2cc(=O)n(C)c3ncccc23)C[C@H](CN2CC(c3ccc(N4CC5(CNCCO5)C4)cc3)C2)O1", "note": "[Example 173, 1-methyl-4-[(2R,6S)-2-methyl-6-[[3-[4-(5-oxa-2,8-diazaspiro[3.5]nonan-2-yl)phenyl]azetidin-1-yl]methyl]morpholin-4-yl]-1,8-naphthyridin-2-one]", "IC50": 60}
{"smiles": "C[C@@H]1CN(c2cc(=O)n(C)c3ncccc23)C[C@H](CN2CC(c3ccc(N4C[C@H]5NCCO[C@@H]5C4)cc3)C2)O1", "note": "[Example 182, 4-[(2S,6R)-2-[[3-[4-[(4aR,7aR)-3,4,4a,5,7,7a-hexahydro-2H-pyrrolo[3,4-b][1,4]oxazin-6-yl]phenyl]azetidin-1-yl]methyl]-6-methyl-morpholin-4-yl]-1-methyl-1,8-naphthyridin-2-one]", "IC50": 39}
{"smiles": "C[C@@H]1CN(c2ccc(C#N)c3ncccc23)C[C@H](CN2CCN(c3cnc(N4CCNCC4)nc3)CC2)O1", "note": "[Example 12, 5-[(2R,6S)-2-methyl-6-[[4-(2-piperazin-1-ylpyrimidin-5-yl)piperazin-1-yl]methyl]morpholin-4-yl]quinoline-8-carbonitrile]", "IC50": 32}
{"smiles": "C[C@@H]1CN(c2ccc(C#N)c3ncccc23)C[C@H](CN2CCN(c3ccc(N4CCNCC4)nc3)CC2)O1", "note": "[Example 13, 5-[(2R,6S)-2-methyl-6-[[4-(6-piperazin-1-yl-3-pyridyl)piperazin-1-yl]methyl]morpholin-4-yl]quinoline-8-carbonitrile]", "IC50": 142}
{"smiles": "Cc1nc(N2CCNCC2)nc(N2CCN(C[C@H]3CN(c4ccc(C#N)c5ncccc45)C[C@@H](C)O3)CC2)c1C", "note": "[Example 46, 5-[(2S,6R)-2-[[4-(5,6-dimethyl-2-piperazin-1-yl-pyrimidin-4-yl)piperazin-1-yl]methyl]-6-methyl-morpholin-4-yl]quinoline-8-carbonitrile]", "IC50": 157}
{"smiles": "CO[C@H]1CN(c2nccc(N3CCN(C[C@H]4CN(c5ccc(C#N)c6ncccc56)C[C@@H](C)O4)CC3)n2)C[C@@H]1N", "note": "[Example 26, 5-[(2S,6R)-2-[[4-[2-trans-(3-amino-4-methoxy-pyrrolidin-1-yl)pyrimidin-4-yl]piperazin-1-yl]methyl]-6-methyl-morpholin-4-yl]quinoline-8-carbonitrile]", "IC50": 32}
{"smiles": "Cc1cc(N2CCN(C[C@H]3CN(c4ccc(C#N)c5ncccc45)C[C@@H](C)O3)CC2)nc(N2C[C@@H]3COC[C@@H](C2)N3)n1", "note": "[Example 58, 5-[(2R,6S)-2-methyl-6-[[4-[6-methyl-2-[(1R,5R)-3-oxa-7,9-diazabicyclo[3.3.1]nonan-7-yl]pyrimidin-4-yl]piperazin-1-yl]methyl]morpholin-4-yl]quinoline-8-carbonitrile]", "IC50": 45}
{"smiles": "C[C@@H]1CN(c2ccc(C#N)c3ncccc23)C[C@H](CN2CCN(c3ncc(N4CCNCC4)cn3)CC2)O1", "note": "[Example 17, 5-[(2R,6S)-2-methyl-6-[[4-(5-piperazin-1-ylpyrimidin-2-yl)piperazin-1-yl]methyl]morpholin-4-yl]quinoline-8-carbonitrile]", "IC50": 186}
{"smiles": "C[C@@H]1CN(c2ccc(C#N)c3ncccc23)C[C@H](CN2CCN(c3ccnc(N4CCC(N)CC4)n3)CC2)O1", "note": "[Example 27, 5-[(2S,6R)-2-[[4-[2-(4-amino-1-piperidyl)pyrimidin-4-yl]piperazin-1-yl]methyl]-6-methyl-morpholin-4-yl]quinoline-8-carbonitrile]", "IC50": 43}
{"smiles": "Cc1cc(N2CCNCC2)nc(N2CCN(C[C@H]3CN(c4ccc(C#N)c5ncccc45)C[C@@H](C)O3)CC2)n1", "note": "[Example 68, 5-[(2R,6S)-2-methyl-6-[[4-(4-methyl-6-piperazin-1-yl-pyrimidin-2-yl)piperazin-1-yl]methyl]morpholin-4-yl]quinoline-8-carbonitrile]", "IC50": 95}
{"smiles": "C[C@@H]1CN(c2ccc(C#N)c3ncccc23)C[C@H](CN2CCN(c3cccc(N4CCNCC4)n3)CC2)O1", "note": "[Example 10, 5-[(2R,6S)-2-methyl-6-[[4-(6-piperazin-1-yl-2-pyridyl)piperazin-1-yl]methyl]morpholin-4-yl]quinoline-8-carbonitrile]", "IC50": 105}
{"smiles": "C[C@@H]1CN(c2ccc(C#N)c3ncccc23)C[C@H](CN2CCN(c3cccc(N[C@H]4CNC[C@H]4F)n3)CC2)O1", "note": "[Example 37, 5-[(2S,6R)-2-[[4-[6-[[(3S,4R)-4-fluoropyrrolidin-3-yl]amino]-2-pyridyl]piperazin-1-yl]methyl]-6-methyl-morpholin-4-yl]quinoline-8-carbonitrile]", "IC50": 234}
